Legend:
[1] = target: T1, 5-hydroxytryptamine receptor 1A (Rattus norvegicus, UniProt P19327); format: cell membranes, CHO-K1, Membrane; conditions: cho-k1; further: in other assays of this panel Not Active means under 50% inhibition at 10 µM
T1 sequence (P19327 whole entry): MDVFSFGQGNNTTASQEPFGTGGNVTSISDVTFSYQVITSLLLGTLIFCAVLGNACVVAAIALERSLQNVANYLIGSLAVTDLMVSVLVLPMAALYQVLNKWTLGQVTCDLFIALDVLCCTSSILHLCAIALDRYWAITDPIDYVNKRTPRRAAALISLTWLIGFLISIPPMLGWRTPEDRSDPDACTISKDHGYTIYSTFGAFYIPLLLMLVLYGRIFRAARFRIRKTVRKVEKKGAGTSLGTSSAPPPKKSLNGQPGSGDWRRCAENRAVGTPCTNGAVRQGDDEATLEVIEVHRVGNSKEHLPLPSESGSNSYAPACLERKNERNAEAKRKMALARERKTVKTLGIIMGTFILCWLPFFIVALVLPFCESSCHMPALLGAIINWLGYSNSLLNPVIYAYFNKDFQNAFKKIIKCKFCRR

D(1A) dopamine receptor = D(1A) dopamine receptor (Homo sapiens, UniProt P21728); experiment: DRUGMATRIX: Dopamine D1 radioligand binding (ligand: [3H] SCH-23390); format: cell membranes, CHO, Membrane; conditions: cho; Not Active = under 50% inhibition at 10 µM
Substance-P receptor = Substance-P receptor (Homo sapiens, UniProt P25103); format: cell membranes, Membrane; conditions: cho; further: in other assays of this panel Not Active means under 50% inhibition at 10 µM
[2] = target: T2, Alpha-1A adrenergic receptor (Rattus norvegicus, UniProt P43140); experiment: DRUGMATRIX: Alpha-1A adrenergic receptor radioligand binding (ligand: prazosin); format: cell membranes, Wistar, Submaxillary gland, Membrane; conditions: Not Active = under 50% inhibition at 10 µM
T2 sequence (P43140 whole entry): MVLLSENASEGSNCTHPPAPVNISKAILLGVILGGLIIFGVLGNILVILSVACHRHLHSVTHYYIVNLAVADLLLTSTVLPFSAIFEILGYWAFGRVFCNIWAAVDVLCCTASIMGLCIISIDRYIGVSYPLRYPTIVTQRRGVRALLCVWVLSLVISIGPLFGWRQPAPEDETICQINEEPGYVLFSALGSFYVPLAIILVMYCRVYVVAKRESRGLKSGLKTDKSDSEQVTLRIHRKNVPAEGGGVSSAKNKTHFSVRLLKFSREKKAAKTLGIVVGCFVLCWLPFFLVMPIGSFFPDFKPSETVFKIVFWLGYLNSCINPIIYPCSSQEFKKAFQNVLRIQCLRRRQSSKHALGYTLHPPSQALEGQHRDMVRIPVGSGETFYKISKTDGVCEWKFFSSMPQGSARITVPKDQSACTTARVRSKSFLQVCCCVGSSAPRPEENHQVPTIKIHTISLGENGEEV

[3] = target: T3, Amine oxidase [flavin-containing] A (Homo sapiens, UniProt P21397); experiment: DRUGMATRIX: Monoamine Oxidase MAO-A enzyme inhibition (substrate: Kynuramine); parameters: species or system BTI-TN-5B1-4; conditions: bti-tn-5b1-4; Not Active = under 50% inhibition at 10 µM
T3 sequence (P21397 whole entry): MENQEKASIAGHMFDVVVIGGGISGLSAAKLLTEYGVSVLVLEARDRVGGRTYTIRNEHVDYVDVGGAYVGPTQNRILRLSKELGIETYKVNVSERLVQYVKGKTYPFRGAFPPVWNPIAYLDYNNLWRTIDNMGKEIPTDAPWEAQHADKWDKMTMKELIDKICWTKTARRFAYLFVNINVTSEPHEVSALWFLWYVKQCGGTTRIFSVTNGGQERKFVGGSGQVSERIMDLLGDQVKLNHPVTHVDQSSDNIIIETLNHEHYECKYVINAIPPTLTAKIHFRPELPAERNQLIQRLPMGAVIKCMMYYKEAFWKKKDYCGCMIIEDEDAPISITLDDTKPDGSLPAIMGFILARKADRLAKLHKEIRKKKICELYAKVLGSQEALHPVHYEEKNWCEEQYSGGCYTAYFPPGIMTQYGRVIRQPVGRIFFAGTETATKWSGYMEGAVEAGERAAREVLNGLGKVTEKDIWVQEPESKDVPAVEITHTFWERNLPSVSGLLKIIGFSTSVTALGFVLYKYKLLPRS

[4] = target: C-C chemokine receptor type 2 (Homo sapiens, UniProt P41597); format: cell membranes, CHO-K1, Membrane; conditions: cho-k1; further: in other assays of this panel Not Active means under 50% inhibition at 10 µM

Measured: IC50

Substance-P receptor, sequence (P25103 whole entry): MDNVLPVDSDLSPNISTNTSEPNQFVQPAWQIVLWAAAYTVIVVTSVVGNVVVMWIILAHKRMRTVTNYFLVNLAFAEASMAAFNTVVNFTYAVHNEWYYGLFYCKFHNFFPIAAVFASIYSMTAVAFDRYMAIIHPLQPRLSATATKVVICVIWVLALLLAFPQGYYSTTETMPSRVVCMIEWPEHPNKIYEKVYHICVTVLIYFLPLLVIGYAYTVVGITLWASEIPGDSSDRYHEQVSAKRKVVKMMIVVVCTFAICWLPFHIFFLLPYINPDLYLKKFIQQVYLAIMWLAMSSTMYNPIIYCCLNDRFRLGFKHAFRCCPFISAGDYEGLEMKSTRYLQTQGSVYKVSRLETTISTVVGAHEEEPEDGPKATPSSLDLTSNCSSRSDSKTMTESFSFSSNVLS
D(1A) dopamine receptor, sequence (P21728 whole entry): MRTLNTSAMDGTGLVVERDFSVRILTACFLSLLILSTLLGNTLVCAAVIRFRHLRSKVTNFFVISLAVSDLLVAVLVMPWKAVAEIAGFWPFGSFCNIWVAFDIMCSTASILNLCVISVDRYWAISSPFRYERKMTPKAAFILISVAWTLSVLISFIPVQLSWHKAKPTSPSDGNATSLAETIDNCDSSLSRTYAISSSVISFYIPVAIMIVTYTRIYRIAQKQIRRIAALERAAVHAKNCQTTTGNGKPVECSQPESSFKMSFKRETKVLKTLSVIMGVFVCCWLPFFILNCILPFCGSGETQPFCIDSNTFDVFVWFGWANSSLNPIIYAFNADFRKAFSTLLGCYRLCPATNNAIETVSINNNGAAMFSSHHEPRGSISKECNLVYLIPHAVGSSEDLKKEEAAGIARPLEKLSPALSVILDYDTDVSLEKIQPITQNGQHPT
C-C chemokine receptor type 2, sequence (P41597 whole entry): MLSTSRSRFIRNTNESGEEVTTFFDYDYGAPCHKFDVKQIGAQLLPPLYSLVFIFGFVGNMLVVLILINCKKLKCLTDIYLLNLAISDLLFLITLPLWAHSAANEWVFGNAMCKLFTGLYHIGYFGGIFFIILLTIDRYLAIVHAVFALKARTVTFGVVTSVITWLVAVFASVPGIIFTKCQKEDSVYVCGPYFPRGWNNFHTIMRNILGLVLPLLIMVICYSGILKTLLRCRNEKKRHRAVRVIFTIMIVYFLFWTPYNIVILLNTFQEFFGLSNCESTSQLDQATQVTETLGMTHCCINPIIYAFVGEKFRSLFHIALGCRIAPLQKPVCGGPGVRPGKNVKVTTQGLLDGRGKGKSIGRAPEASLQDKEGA

CC(C)Cc1ccc([C@H](C)C(=O)O)cc1 [DEXIBUPROFEN]
Not Active: [1] | D(1A) dopamine receptor | Substance-P receptor | [2] | [3] | [4]

O=c1[nH]cnc2c1ncn2[C@H]1CC[C@@H](CO)O1 [DIDANOSINE]
Not Active: [1] | D(1A) dopamine receptor | Substance-P receptor | [2] | [3] | [4]

ClC1=C(Cl)[C@]2(Cl)[C@@H]3[C@@H]4C[C@@H]([C@H]5O[C@@H]45)[C@@H]3[C@@]1(Cl)C2(Cl)Cl [DIELDRIN]
Not Active: [1] | D(1A) dopamine receptor | Substance-P receptor | [2] | [3] | [4]

CCN1CCN(c2cc3c(cc2F)c(=O)c(C(=O)O)cn3C2CC2)CC1 [ENROFLOXACIN]
Not Active: [1] | D(1A) dopamine receptor | Substance-P receptor | [2] | [3] | [4]

CC[C@H]1OC(=O)[C@H](C)[C@@H](O[C@H]2C[C@@](C)(OC)[C@@H](O)[C@H](C)O2)[C@H](C)[C@@H](O[C@@H]2O[C@H](C)C[C@H](N(C)C)[C@H]2O)[C@](C)(O)C[C@@H](C)C(=O)[C@H](C)[C@@H](O)[C@]1(C)O [ERYTHROMYCIN]
Not Active: [1] | D(1A) dopamine receptor | Substance-P receptor | [2] | [3] | [4]

CC12CCC(CC1)C(C)(C)O2 [EUCALYPTOL]
Not Active: [1] | D(1A) dopamine receptor | Substance-P receptor | [2] | [3] | [4]

NC(N)=Nc1nc(CSCCC(N)=NS(N)(=O)=O)cs1 [FAMOTIDINE]
Not Active: [1] | D(1A) dopamine receptor | Substance-P receptor | [2] | [3] | [4]

COC(=O)Nc1nc2ccc(Sc3ccccc3)cc2[nH]1 [FENBENDAZOLE]
Not Active: [1] | D(1A) dopamine receptor | Substance-P receptor | [2] | [3] | [4]

COc1cc(/C=C/C(=O)O)ccc1O [FERULATE]
Not Active: [1] | D(1A) dopamine receptor | Substance-P receptor | [2] | [3] | [4]

Nc1nc(F)nc2c1ncn2[C@@H]1O[C@H](CO)[C@@H](O)[C@@H]1O [FLUDARABINE]
Not Active: [1] | D(1A) dopamine receptor | Substance-P receptor | [2] | [3] | [4]

C[C@H](C(=O)O)c1ccc2oc(-c3ccc(F)cc3)nc2c1 [FLUNOXAPROFEN]
Not Active: [1] | D(1A) dopamine receptor | Substance-P receptor | [2] | [3] | [4]

NS(=O)(=O)c1cc(C(=O)O)c(NCc2ccco2)cc1Cl [FUROSEMIDE]
Not Active: [1] | D(1A) dopamine receptor | Substance-P receptor | [2] | [3] | [4]

COc1ccc(Cl)cc1C(=O)NCCc1ccc(S(=O)(=O)NC(=O)NC2CCCCC2)cc1 [GLYBURIDE]
Not Active: [1] | D(1A) dopamine receptor | Substance-P receptor | [2] | [3] | [4]

O=C(O)CO [GLYCOLIC ACID]
Not Active: [1] | D(1A) dopamine receptor | Substance-P receptor | [2] | [3] | [4]

O=C(O)CNCP(=O)(O)O [GLYPHOSATE]
Not Active: [1] | D(1A) dopamine receptor | Substance-P receptor | [2] | [3] | [4]

COC(=O)C[C@](O)(CCC(C)(C)O)C(=O)O[C@@H]1C(OC)=C[C@]23CCCN2CCc2cc4c(cc2[C@H]13)OCO4 [HARRINGTONINE]
Not Active: [1] | D(1A) dopamine receptor | Substance-P receptor | [2] | [3] | [4]

CCN(CCO)CCCC(C)Nc1ccnc2cc(Cl)ccc12 (stereo not drawn) [HYDROXYCHLOROQUINE]
Not Active: [1] | D(1A) dopamine receptor | Substance-P receptor | [2] | [3] | [4]

CC(=O)[C@]1(O)Cc2c(O)c3c(c(O)c2[C@@H](O[C@H]2C[C@H](N)[C@H](O)[C@H](C)O2)C1)C(=O)c1ccccc1C3=O [IDARUBICIN]
Not Active: [1] | D(1A) dopamine receptor | Substance-P receptor | [2] | [3] | [4]

CC(C)Cn1cnc2c(N)nc3ccccc3c21 [IMIQUIMOD]
Not Active: [1] | D(1A) dopamine receptor | Substance-P receptor | [2] | [3] | [4]

O=C(NCCN1CCOCC1)c1ccc(Cl)cc1 [MOCLOBEMIDE]
Not Active: [1] | D(1A) dopamine receptor | Substance-P receptor | [2] | [3] | [4]

C=CCN1CC[C@]23c4c5ccc(O)c4O[C@H]2/C(=N/N=C2\CC[C@@]4(O)[C@H]6Cc7ccc(O)c8c7[C@@]4(CCN6CC=C)[C@H]2O8)CC[C@@]3(O)[C@H]1C5 [NALOXONAZINE]
Not Active: [1] | D(1A) dopamine receptor | Substance-P receptor | [2] | [3] | [4]

Cc1ccnc2c1NC(=O)c1cccnc1N2C1CC1 [NEVIRAPINE]
Not Active: [1] | D(1A) dopamine receptor | Substance-P receptor | [2] | [3] | [4]

O=C1CN(/N=C/c2ccc([N+](=O)[O-])o2)C(=O)N1 [NITROFURANTOIN]
Not Active: [1] | D(1A) dopamine receptor | Substance-P receptor | [2] | [3] | [4]

Reference: ChEMBL document CHEMBL1909046, “DrugMatrix in vitro pharmacology data”
